Data as given in patent US10874683B2, “N4-hydroxycytidine and derivatives and anti-viral uses related thereto” (Emory University, priority 2016, dated 2020).
Like-named read-outs stand apart in the source and are kept apart here.

How the values were obtained:
VEE virus = experiment: organism not typed; format: cell-based; conditions: Vero
WEE virus = experiment: organism not typed; format: cell-based; conditions: Vero
CHIK virus = experiment: organism not typed; format: cell-based; conditions: Vero
[1] = Toxicology after 6 day q.d. intraperitoneal injections in mice; format: in vivo
Description: Alternatively, drug delivery by aerosol (nasal spray) administration may immediately achieve therapeutic levels of drug in the nasal mucosa and the brain.

CEM cells = experiment: Cytotoxicity profile, CEM cells; format: cell-based; conditions: CEM cells (low of range)
[2] = Rodent pharmacokinetic experiment in DBA-1J mice; format: in vivo; conditions: female, mouse, plasma, after IV dosing, read-out: plasma T1/2 (converted)
EEE virus = experiment: organism not typed; format: cell-based; conditions: Vero
[3] = rat, in vivo, po, 50 mg/kg
Huh7 (liver) cells = experiment: Cytotoxicity profile, Huh7 (liver) cells; format: cell-based; conditions: Huh7 (liver) cells (high of range)
pestivirus, hepacivirus = conditions: Stuyver et al., Antimicrob Agents Chemother 2003; cited from earlier work
Ross River virus = experiment: Vero cell cytopathic effect (CPE) model, Ross River virus; format: cell-based
in vivo = conditions: male, SD, rat, po, 50 mg/kg
[4] = Rodent pharmacokinetic experiment in DBA-1J mice; format: in vivo; conditions: for concentration at 24 h: oral, read-out: 24 hr plasma levels
Method: DBA-1J mice (6-8 weeks old, female) were acclimated for ≥2 days after receipt. Mice were weighed the day before dosing to calculate dosing volumes. Mice were dosed by oral gavage with drug at 30 mg/kg, 100 mg/kg & 300 mg/kg. The mice were sampled at […] time points: 0.5, 1, 2, 3, 4, 8 and 24 hrs (3 mice per time point for test drug). The mice were euthanized and their organs were collected (see below). In order to collected blood, mice with euthanized by CO2 at the appropriate time point listed above. Blood was obtained by cardiac puncture (0.3 ml) at each time point. Following blood collection, the organs were removed from the mice (see below). The blood was processed by inverting Li-Heparin tube with blood gently 2 or 3 times to mix well. The tubes were then placed in a rack in ice water until able to centrifuge (≤1 hour). As soon as practical, the blood was centrifuged at ˜2000×g for 10 min in a refrigerated centrifuge to obtain plasma. Then, using a 200 μL pipette, the plasma was transferred to a labeled 1.5 ml Eppendorf tube in ice water. The plasma was then frozen in freezer or on dry ice. The samples were stored at −80° C. prior to analysis. Organs were collected from euthanized mice. The organs (lungs, liver, kidney, spleen and heart) were removed, placed in a tube, and immediately frozen in liquid nitrogen. The tubes were then transferred to dry ice. The samples were saved in cryogenic tissue vials. Samples were analyzed by LC-MS/MS using an ABSCIEX 5500 QTRAP LC-MS/MS system with a Hypercarb (PGC) column.

[5] = Cytotoxicity in Vero cells (ZIKV table); conditions: African green monkey
ZIKV = ZIKV antiviral assay; format: cell-based; conditions: Zika virus, read-out: ZIKV (EC50 μM)

O=c1nc(NO)ccn1[C@@H]1O[C@H](CO)[C@H](O)C1O (stereo in doubt) [EIDD-01931, 1-(3,4-dihydroxy-5-(hydroxymethyl)tetrahydrofuran-2-yl)-4-(hydroxyamino)pyrimidin-2-one]
EC50 (VEE virus): 1 µM | EC50 (WEE virus): 1.36 µM | EC50 (CHIK virus): 1.28 µM | body weight effect at highest dose tested ([1]; 100 mg/kg, 6 day q.d. IP, reversed on cessation of dosing): weight loss was observed | NOEL (NO Effect Level) ([1]; 6 day q.d. intraperitoneal (IP) injections): 33 mg/kg | selectivity index (CEM cells): 8 | half-life [2]: 2.2 h | EC50 (EEE virus): 1.08 µM | tissue distribution [3]: well distributed into all tissues tested | selectivity index (Huh7 (liver) cells): 232 | antiviral activity (pestivirus, hepacivirus): antipestivirus and antihepacivirus activities | EC50 (Ross River virus): 2.45 µM | bioavailability (in vivo): 28% | Bioavailability (versus I.P. delivery) ([4]; 30 mg/kg PO dosing): 65% | Bioavailability (versus I.P. delivery) ([4]; 100 and 300 mg/kg PO dosing): 39-46% | Cmax ([4]; female, DBA-1J, mouse, plasma, PO dosing 30 mg/kg): 3 ng/mL | Cmax ([4]; female, DBA-1J, mouse, plasma, PO dosing 100 mg/kg): 7.7 ng/mL | Cmax ([4]; female, DBA-1J, mouse, plasma, PO dosing 300 mg/kg): 11.7 ng/mL | half-life ([4]; female, DBA-1J, mouse, plasma, after PO dosing, read-out: plasma T1/2): 4.1 to 4.7 h | Tmax ([4]; female, DBA-1J, mouse, plasma, after oral dosing): 0.25 to 0.5 h | concentration at 24 h ([4]; female, DBA-1J, mouse, plasma, after 100 mg/kg dose): ~100 nM | concentration at 24 h ([4]; female, DBA-1J, mouse, plasma, after 300 mg/kg P.O. dose): ~400 nM

O=c1nc(NO)ccn1[C@@H]1O[C@H](CO)[C@H](O)C1O (stereo partly drawn) [drawing 106]
CC50 [5]: 50.4 µM | EC50 (ZIKV): 4.02 µM
